# PMC7936488, “An efficient system for intestinal on-site butyrate production using novel microbiome-derived esterases” (Journal of Biological Engineering, 2021)
# What was measured:
# [1] = target: T1, SP_Est (Streptococcus pneumoniae, UniProt A0A0H2UNZ8); assay: p-nitrophenol release at […] nm, E. coli tEc cells expressing the gene vs empty vector; assay type: cell-based; settings: whole-cell culture aliquot, 5 min
# T1 construct: gene estA; gene in pBAD24 under tbe1 promoter, E. coli tEc cells, not purified
# T1 sequence (A0A0H2UNZ8 1-259): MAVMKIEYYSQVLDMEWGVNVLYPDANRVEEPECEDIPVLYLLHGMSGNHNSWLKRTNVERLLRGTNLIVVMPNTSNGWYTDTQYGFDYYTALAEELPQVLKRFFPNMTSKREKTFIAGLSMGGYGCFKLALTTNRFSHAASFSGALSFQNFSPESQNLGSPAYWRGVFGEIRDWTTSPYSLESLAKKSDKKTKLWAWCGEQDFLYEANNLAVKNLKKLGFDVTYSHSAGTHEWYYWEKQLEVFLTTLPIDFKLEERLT
# [2] = target: T2, LL_Tbe (Lactococcus lactis, UniProt Q9L9X0); assay: as above; assay type: cell-based; settings: whole-cell culture aliquot, 5 min
# T2 construct: gene estA; gene in pBAD24 under tbe1 promoter, E. coli tEc cells, not purified
# T2 sequence (Q9L9X0 1-258): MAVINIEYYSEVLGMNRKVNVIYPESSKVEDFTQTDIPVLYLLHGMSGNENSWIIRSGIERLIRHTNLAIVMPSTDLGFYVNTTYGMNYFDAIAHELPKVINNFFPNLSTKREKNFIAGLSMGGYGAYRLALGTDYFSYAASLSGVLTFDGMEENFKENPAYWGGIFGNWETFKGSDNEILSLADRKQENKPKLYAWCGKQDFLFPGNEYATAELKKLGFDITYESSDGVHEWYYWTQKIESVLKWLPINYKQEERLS
compound,measurement,setting,value
CCCC(=O)Oc1ccc([N+](=O)[O-])cc1 [4-nitrophenyl butyrate],"p-nitrophenol release at 400 nm, E. coli tEc cells expressing the gene vs empty",[1],the esterase of S. pneumoniae was the most potent among the four tested enzymes
same,"p-nitrophenol release at 400 nm, E. coli tEc cells expressing the gene vs empty",[2],Tbe1 demonstrated almost identical activity to the L. lactis enzyme
